Assay [1] concerns Long-Evans rats. The assay can be described thus: reversal of a visual discrimination (operant, Phase II reversal training). The assay is classed as in vivo, rat. As to the method: Forty adult male Long-Evans rats (Charles River Laboratories, Wilmington, Mass.) approximately 250 g at the start of training were used as subjects in this study. Each shipment of rats went through five-day isolation prior to introduction to the general population. Rats were allowed a minimum of one additional week acclimation before operant training began.
Test compound was dissolved in sterile 0.9% saline at 3.0, 10.0, and 30.0 mg/mL, D-amphetamine, the reference compound, was also dissolved in 0.9% sterile saline at 1.0 mg/mL of the amphetamine salt.
After operant training began, rats were housed individually. Access to food was restricted to 12-20 grams per day to maintain animals at 85-90% free feeding body weight (relative to non-restricted rats). Rats were never deprived of water and continued gain weight while in the study.
After animals reached the training criteria on Phase I of the study, they were designated to one of the treatment groups; groups were matched for performance (days to criterion per in Phase I. The study was a mixed design (dose levels×repeated training sessions). The five dose levels were 1, 3, and 10 mg/kg test compound, 0.9 percent saline (vehicle) and 1.0 mg/kg d-amphetamine sulfate (reference compound) all delivered intraperitoneal (IP) at 1.0 mL/kg.
Animals were trained in a set of 10 operant testing chambers (Med Associates) containing two retractable response levers on the front wall. There were two stimulus lights in the chamber, one situated over each lever. The food magazine is located between the two response levers on the front wall and food delivery is signaled with a magazine light. Retrieval of the food pellet is detected by a photosensor within the food magazine. Dim illumination of the chamber is provided by a houselight over the center of the front wall.
Initially animals were shaped to press a lever for food. During this phase, both levers were extended into the chamber and the animal was rewarded with a 45 mg pellet for pressing a lever. The use of a side bias is prevented by retracting a lever once it exceeds five presses beyond the number of presses on the opposite lever. After […] consecutive days with 100 lever presses subjects were moved to Phase I of the study. In this phase, animals had to learn to press the lever beneath the illuminated signal light. On each trial, one of the signal lights (randomly chosen) was illuminated for 1.0 sec prior to presentation of the levers (30.0 sec limited hold). […] After either a correct or incorrect press, or an omission, the levers were retracted for the duration of the variable inter-trial-interval (ITT; 5 s+/−2 s). After stable responding (two consecutive days better than 80% correct) was established in this phase, animals began training in the drug administration portion of the experiment (Phase II).
In Phase II, animals were divided into five groups matched on percent accuracy and number of trials to criterion. Animals in each group were dosed with one of three doses of test compound ([…], IP), amphetamine (1.0 mg/kg, IP), or with the vehicle (saline) one hour prior to behavioral training. In Phase II the discrimination was reversed from that of Phase I such that animals were now rewarded for pressing the lever distal to the cue light. Animals were dosed daily approximately 60 min prior to training. Training continued until ad animals achieved two consecutive days above 80% correct on the new discrimination.
Data were analyzed using SPSS 12.0 for Windows (SSPS Inc., Chicago, Ill.). A mixed between groups, repeated measures ANOVA was conducted cm response accuracy data. A simple one-way ANOVA was conducted on the trials to criteria data from Phase II.

Assay [2] has as its system homozygous mutant dopamine transporter KO mice. Description: spontaneous activity in the open field, dopamine transporter KO mice. The assay is classed as in vivo, mouse. As to the method: Male and female wild-type and homozygous mutant dopamine transporter KO mice (n−10 mice/genotype/agent) were tested for spontaneous activity in the open field following a single injection of the vehicle or compound. […] All drugs, were given in a volume of 5 mL/kg. Animals were returned to the open field for an additional 90 min. Spontaneous activity was evaluated in an automated Omnitech Digiscan apparatus (Accuscan Instruments, Columbus, Ohio). Activity was summated at 5 min intervals over the 2 h period of testing. Horizontal activity or locomotion was Measured in terms of toe total distance covered in cm, vertical activity or rearing was expressed in terms of the total numbers of vertical beam breaks, and stereotypy was quantified in terms of repetitive breaks of a given beam or beams with intervals of less than 1 sec. For the analyses, 10 WT and 10 KO mice were run in each of the treatment groups with approximately equal numbers of males and females assigned to each group. Data were analyzed by the Statistical Package for Social Sciences programs (version 11.0 for Windows; SPSS Science, Chicago, Ill.). The results lot each dependent variable were analyzed by repeated analyses of variance. (RMANOVA) for within subjects effects (group differences over time) and between-subjects effects (tests of main effects and interactions). Bonferroni corrected pair-wise comparisons were used as the post-hoc tests. A p<0.05 was considered significant.

The test system of assay [3] is wild-type mice. Description: spontaneous activity in the open field, wild-type mice. To be noted: 2 mg/kg SC, relative to vehicle controls. The assay is classed as in vivo, mouse. The protocol:
Male and female wild-type and homozygous mutant dopamine transporter KO mice (n−10 mice/genotype/agent) were tested for spontaneous activity in the open field following a single injection of the vehicle or compound. Mice were placed into the open field for 30 min and administered SC the vehicle (sterile water) 2 mg/kg amphetamine, or three concentrations of the test compound (10, 30, 100 mg/kg). All drugs, were given in a volume of 5 mL/kg. Animals were returned to the open field for an additional 90 min. Spontaneous activity was evaluated in an automated Omnitech Digiscan apparatus (Accuscan Instruments, Columbus, Ohio). Activity was summated at 5 min intervals over the 2 h period of testing. Horizontal activity or locomotion was Measured in terms of toe total distance covered in cm, vertical activity or rearing was expressed in terms of the total numbers of vertical beam breaks, and stereotypy was quantified in terms of repetitive breaks of a given beam or beams with intervals of less than 1 sec. For the analyses, 10 WT and 10 KO mice were run in each of the treatment groups with approximately equal numbers of males and females assigned to each group. Data were analyzed by the Statistical Package for Social Sciences programs (version 11.0 for Windows; SPSS Science, Chicago, Ill.). The results lot each dependent variable were analyzed by repeated analyses of variance. […]

Assay [4] has as its target T1, human dopamine transporter (Homo sapiens, UniProt Q01959).
T1 construct: expressed in transfected cells; host or cells: HEK293
The assay can be described thus: inhibition of [125I]RTI-55 binding to hDAT in HEK293 cell membranes. To be noted: HEK-hDAT cells.

For assay [5], the target named is T2, human serotonin transporter (Homo sapiens, UniProt P31645).
T2 construct: expressed in transfected cells; host or cells: HEK293
The assay can be described thus: inhibition of [125I]RTI-55 binding to hSERT in HEK293 cell membranes. Conditions: HEK-hSERT cells.

The target of assay [6] is T3, human norepinephrine transporter (Homo sapiens, UniProt P23975).
T3 construct: expressed in transfected cells; host or cells: HEK293
The assay is classed as binding. Conditions: HEK-hNET cells.

For assay [7], the system named is extracellular monoaminergic transmitter levels. Description: in vivo brain microdialysis in prefrontal cortical and striatal brain areas of freely-moving rats. The arrangement: species or system rat. As to the method:
Brain dialysates were collected from male Sprague-Dawey rats, which had been chronically implanted with cortical and striatal microdialysis guide cannulae and probes. The effects of different doses of test compound (10 and 30 mg/kg, administered subcutaneously) or vehicle (saline, 0.9% NaCl) were evaluated in three 50 baseline samples and eight consecutive 50 minute post-administration samples. The levels of dopamine, norepinephrine and serotonin for the two different brain areas were analyzed using HPLC/PCD analysis to determine any effects of the compound.
In FIGS. 4 and 5, results are expressed as the average percentage change compared to the individual's average baseline value. The arrow indicates the time of administration of test compound. The average value (and corresponding S.E.M.) are shown for each 50 minute sample period of n=12 rats for each group (NB: individual data points may be based on fewer samples owing to incidental loss of dialysate samples).

The mark [8] stands for this setting: 1.0 mg/kg IP daily (d-amphetamine sulfate), vs vehicle.

This note sets out measurements from patent publication US11524935B2, “Methods for treating attention-deficit/hyperactivity disorder” (priority 2009, dated 2022).

Entries after “also recorded” stand apart in the source; their conditions may differ. Where a name gives a salt, the structure may show the parent alone.

T1 sequence (Q01959 whole entry): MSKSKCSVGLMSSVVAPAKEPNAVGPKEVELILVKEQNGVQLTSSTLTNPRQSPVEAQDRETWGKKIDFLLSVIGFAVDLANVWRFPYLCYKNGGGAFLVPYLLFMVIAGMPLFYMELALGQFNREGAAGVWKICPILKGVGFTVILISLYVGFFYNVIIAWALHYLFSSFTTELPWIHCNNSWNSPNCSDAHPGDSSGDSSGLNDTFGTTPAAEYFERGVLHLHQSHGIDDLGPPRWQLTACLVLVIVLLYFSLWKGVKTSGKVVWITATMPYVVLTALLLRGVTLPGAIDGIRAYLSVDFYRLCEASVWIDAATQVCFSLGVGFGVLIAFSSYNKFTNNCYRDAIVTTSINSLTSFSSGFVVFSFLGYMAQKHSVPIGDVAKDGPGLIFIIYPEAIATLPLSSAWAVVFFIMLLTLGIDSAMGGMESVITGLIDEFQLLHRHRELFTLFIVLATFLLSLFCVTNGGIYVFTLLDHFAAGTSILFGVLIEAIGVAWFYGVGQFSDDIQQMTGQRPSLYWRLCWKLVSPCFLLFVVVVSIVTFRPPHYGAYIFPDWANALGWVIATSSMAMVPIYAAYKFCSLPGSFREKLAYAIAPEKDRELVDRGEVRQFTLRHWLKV
T3 sequence (P23975 whole entry): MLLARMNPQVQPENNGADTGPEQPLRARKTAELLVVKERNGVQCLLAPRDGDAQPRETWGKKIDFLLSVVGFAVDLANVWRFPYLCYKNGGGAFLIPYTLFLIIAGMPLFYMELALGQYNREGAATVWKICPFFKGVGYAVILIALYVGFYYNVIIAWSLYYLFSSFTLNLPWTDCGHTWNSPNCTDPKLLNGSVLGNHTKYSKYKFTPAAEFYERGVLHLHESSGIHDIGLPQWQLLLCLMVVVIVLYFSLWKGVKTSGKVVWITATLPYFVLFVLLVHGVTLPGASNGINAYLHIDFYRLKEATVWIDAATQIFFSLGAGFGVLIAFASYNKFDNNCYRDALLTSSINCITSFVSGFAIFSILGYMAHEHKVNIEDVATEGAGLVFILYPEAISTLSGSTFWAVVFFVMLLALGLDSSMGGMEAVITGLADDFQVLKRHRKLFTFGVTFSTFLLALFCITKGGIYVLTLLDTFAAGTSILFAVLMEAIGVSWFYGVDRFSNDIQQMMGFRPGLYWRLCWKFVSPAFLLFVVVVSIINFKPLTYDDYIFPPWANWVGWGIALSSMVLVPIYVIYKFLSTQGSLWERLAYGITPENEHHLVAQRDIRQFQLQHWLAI
T2 sequence (P31645 whole entry): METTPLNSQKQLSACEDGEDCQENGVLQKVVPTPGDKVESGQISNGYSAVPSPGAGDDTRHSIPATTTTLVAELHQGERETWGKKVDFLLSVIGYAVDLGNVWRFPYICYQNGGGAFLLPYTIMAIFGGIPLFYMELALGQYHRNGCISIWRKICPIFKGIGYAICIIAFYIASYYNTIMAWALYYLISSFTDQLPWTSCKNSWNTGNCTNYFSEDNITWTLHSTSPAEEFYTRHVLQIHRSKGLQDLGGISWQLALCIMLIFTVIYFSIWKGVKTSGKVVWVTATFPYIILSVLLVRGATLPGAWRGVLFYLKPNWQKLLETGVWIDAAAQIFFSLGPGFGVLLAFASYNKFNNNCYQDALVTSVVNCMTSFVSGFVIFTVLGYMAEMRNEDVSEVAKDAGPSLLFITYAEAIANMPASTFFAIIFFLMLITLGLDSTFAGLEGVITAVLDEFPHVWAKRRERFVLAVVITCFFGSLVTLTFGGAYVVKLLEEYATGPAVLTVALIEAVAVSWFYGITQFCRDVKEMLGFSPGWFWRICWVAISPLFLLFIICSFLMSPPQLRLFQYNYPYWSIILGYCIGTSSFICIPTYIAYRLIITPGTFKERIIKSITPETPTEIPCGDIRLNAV

Take `C[C@H](N)Cc1ccccc1` [amphetamine, d-amphetamine sulfate, reference compound]: in assay [1] (setting [8]), the “number of sessions (trials) required to reach criteria in Phase II” value is listed as “needed fewer trials to reach criterion levels of performance” and the “percent accuracy during Phase II reversal training” value is reported as “better accuracy scores”. In assay [2] (2 mg/kg SC, relative to vehicle controls), the “locomotor, rearing and stereotypical activities” value is recorded as “decreased them in KO animals”. Also, the “locomotor, rearing and stereotypical activities” value in assay [3] is “increased locomotor, rearing and stereotypical activities”.
`NC(=O)OC[C@H](N)Cc1ccccc1` [Test Compound, O-carbamoyl-(D)-phenylalaninol]: the “percent accuracy during Phase II reversal training” value is “better accuracy scores” in assay [1] (3.0 mg/kg IP daily, one hour prior to training, vs vehicle); “lower than the 3.0, and 30.0 dose of test compound” in assay [1] (10.0 mg/kg IP daily, one hour prior to training); “better accuracy scores” in assay [1] (30.0 mg/kg IP daily, one hour prior to training, vs vehicle). The “number of sessions (trials) required to reach criteria in Phase II” value is listed as “needed fewer trials to reach criterion levels of performance” in assay [1] (3.0 mg/kg IP daily, vs vehicle); “did not differ from the vehicle group” in assay [1] (10.0 mg/kg IP daily, vs vehicle); “needed fewer trials to reach criterion levels of performance” in assay [1] (30.0 mg/kg IP daily, vs vehicle). The “locomotor, rearing and stereotypical activities” value in assay [2] (100 mg/kg SC, compared with 2 mg/kg amphetamine) is recorded as “suppressed activities more efficiently than amphetamine”; in assay [2] (10, 30, 100 mg/kg SC single injection, 90 min post-injection), “selectively reduced activity of the KO mice in a dose-dependent manner; also recorded: reduced activities in a dose-dependent fashion”. Also, the Hill coefficient is listed as −0.77 ± 0.12 in assay [4], −2.28 ± 0.05 in assay [5] and −1.45 ± 0.34 in assay [6]. For the same compound, in assay [7] (10 mg/kg s.c., striatum and prefrontal cortex), the “extracellular neurotransmitter levels (dopamine, norepinephrine, serotonin)” value is reported as “no consistent effect”. The “extracellular dopamine concentrations in the striatum” value in assay [7] (30 mg/kg s.c.) is on record as “increases”. Besides, the “extracellular norepinephrine concentrations in the prefrontal cortex” value in assay [7] (30 mg/kg s.c.) is “increases”. Further, in assay [7] (30 mg/kg s.c.), the “other transmitters investigated (extracellular levels)” value is recorded as “without having any significant affect”.

As usually defined, the Hill coefficient is a measure of the steepness of the concentration-response curve.
